From BindingDB's records for doi:10.1021/jm010496a (Pfizer, 2002)
pIC50: −log10 of the molar value.

Target: Fructose-1,6-bisphosphatase 1 (Sus scrofa) (UniProt P00636)
Experiment: Concentration required for 50% Inhibition against recombinant wild type pig enzyme (F16BP) Fructose-1,6-bisphosphatase

Fructose-1,6-bisphosphatase 1 (Sus scrofa), sequence (P00636 whole entry, looked up): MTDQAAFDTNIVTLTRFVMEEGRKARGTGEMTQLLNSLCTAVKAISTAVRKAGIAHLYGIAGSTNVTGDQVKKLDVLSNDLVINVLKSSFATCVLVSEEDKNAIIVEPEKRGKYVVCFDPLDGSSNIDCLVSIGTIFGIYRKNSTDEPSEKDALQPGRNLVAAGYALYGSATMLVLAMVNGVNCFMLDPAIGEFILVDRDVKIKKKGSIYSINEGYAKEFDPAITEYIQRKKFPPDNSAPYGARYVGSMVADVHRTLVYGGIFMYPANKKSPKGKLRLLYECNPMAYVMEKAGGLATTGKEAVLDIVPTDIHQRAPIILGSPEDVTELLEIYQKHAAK

pIC50: 5.02
Structure (SMILES): CCOc1cc2nc(CN(C)C)nc(Nc3cccc(-c4csc(C(N)=O)n4)c3)c2cc1OCC [4-[3-(2-Dimethylaminomethyl-6,7-diethoxy-quinazolin-4-ylamino)-phenyl]-thiazole-2-carboxylic acid amide]
